Laboratory results from PMC10804683, “Identification of the pyridoxal 5′‐phosphate allosteric site in human pyridox(am)ine 5′‐phosphate oxidase” (Protein Science : A Publication of the Protein Society, 2024).
Residue numbers refer to the chain shown, from its start. “Also recorded” adds a separate entry of the source.

Legend:
[1] = target: T1, apo-PNPO F48A/E50L/H248N/R258L (Homo sapiens, UniProt Q9NVS9, E50L/F48A/H248N/R258L); assay: PLP binding by intrinsic fluorescence, apo quadruple variant; settings: excitation 280 nm, 100 nM enzyme
T1 construct: a main form corresponding to the entire protein; made in house; host or cells: E. coli BL21(DE3)
T1 sequence (Q9NVS9 1-261 F48A/E50L/H248N/R258L): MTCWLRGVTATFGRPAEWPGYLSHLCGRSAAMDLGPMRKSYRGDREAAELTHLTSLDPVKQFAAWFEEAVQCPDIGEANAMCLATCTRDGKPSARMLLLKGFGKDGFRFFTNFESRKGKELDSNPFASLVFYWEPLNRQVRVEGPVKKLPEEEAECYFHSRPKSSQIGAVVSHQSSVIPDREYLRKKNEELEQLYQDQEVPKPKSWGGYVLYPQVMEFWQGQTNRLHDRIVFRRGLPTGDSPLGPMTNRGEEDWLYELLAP
Excerpt: PLP binding to PNPO can be detected and quantitatively measured using differential scanning fluorimetry (DSF) and also by measuring FMN fluorescence changes. We had previously attributed DSF changes to PLP binding at the active site, while FMN fluorescence changes were attributed to PLP binding at the allosteric site (Barile et al., [2019], [2020]). Previous experiments carried out with the PNPO R161C variant, affecting a residue that is essential for substrate binding and catalysis (and therefore also for PLP binding at the active site), confirms that DSF measurements only report PLP binding at the active site (Barile et al., [2021]; Table 1). […] We expected to observe no FMN fluorescence changes upon titration of the variants with PLP. However, this was not the case, and the dissociation constant values obtained by observing the FMN fluorescence emission were only up to threefold larger in the variants with respect to wild type PNPO (Figure 3). […] To check the second possibility, we measured intrinsic fluorescence changes of wild type and variant apo‐forms (i.e., without FMN) upon PLP titration. […]
Analyses of PLP binding, based on FMN fluorescence increase observed upon binding of PLP to PNPO, were performed as described in Barile et al. ([2020]). […] Emission spectra were recorded from […], with excitation and emission slits set at 3 and 5 nm, respectively. […]

human PNPO wild type = target: T2, human PNPO wild type (Homo sapiens, UniProt Q9NVS9); assay: PLP inhibition kinetics of PNP oxidation, wild type; type: biochemical; design: a main form corresponding to the entire protein; made in house; host or cells: E. coli BL21(DE3); settings: Na-HEPES pH 7.6, 2 μM enzyme, PLP 0–16 μM
T2 sequence (Q9NVS9 1-261): T1 sequence (Q9NVS9 1-261 F48A/E50L/H248N/R258L) with A48F, L50E, N248H, L258R
Protocol: This is a general inhibition mechanism that takes into account the possibility of PLP binding to both the active and allosteric sites. PLP binding at the active site gives a complete, competitive inhibition, whereas PLP binding at the allosteric site yields a substrate‐enzyme‐PLP ternary complex that is still catalytically active, although k CAT is reduced by a coefficient whose value is around 0.15. A thorough inhibition kinetic characterization was carried out with the wild type, F48A, F48A/E50L/R258L, and F48A/E50L/H248N/R258L PNPO forms, so as to evaluate the effect of the variations on the allosteric properties of the enzyme. The initial velocity of PNP conversion into PLP was measured in Na‐HEPES buffer (in which PLP is allowed to accumulate) by varying substrate concentration at different, fixed exogenous PLP concentrations, using 2 μM enzyme. A series of saturation curves were obtained that were used to fit the Michaelis–Menten equation (Figure 5), acquiring apparent V MAX and K M values as a function of PLP concentration. […]
FIGURE 5 Characterization of PLP inhibition. Upper panels: The initial velocity of the reaction was measured with 2 μM wild type (a), and the F48A (b), F48A/E50L/R258L (c), and F48A/E50L/H248N/R258L (d) PNPO variants, varying PNP concentration while keeping exogenous PLP fixed at different concentrations (0, 0.25, 0.5, 1, 2, 4, 8, and 16 μM). […]

## Cc1ncc(COP(=O)(O)O)c(C=O)c1O [PLP, pyridoxal 5′‐phosphate]
[1]
  Apo-enzyme PLP binding KD^FLUO: no change in fluorescence was observed; also recorded: No binding
Human PNPO wild type
  type of inhibition of PNP oxidation by PLP: typical hyperbolic increase of 1/V MAX and the parabolic increase of K M/V MAX
